Target: T1, human Bradykinin B1 receptor (Homo sapiens, UniProt P46663)
T1 construct: host or cells: CHO-K1
T1 sequence (P46663 1-353): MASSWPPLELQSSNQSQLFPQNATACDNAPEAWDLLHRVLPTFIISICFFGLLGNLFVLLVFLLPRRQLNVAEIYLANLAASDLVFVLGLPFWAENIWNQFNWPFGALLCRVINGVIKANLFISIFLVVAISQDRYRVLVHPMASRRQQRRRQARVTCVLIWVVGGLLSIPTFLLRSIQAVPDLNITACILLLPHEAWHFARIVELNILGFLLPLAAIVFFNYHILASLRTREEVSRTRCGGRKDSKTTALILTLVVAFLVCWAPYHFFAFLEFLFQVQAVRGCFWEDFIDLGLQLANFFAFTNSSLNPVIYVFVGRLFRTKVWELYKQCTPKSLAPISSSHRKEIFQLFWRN
Assay: Calcium flux Assay (FLIPR) with cells expressing human Bradykinin B1 receptor (hB1)
Format: cell-based
Settings: absence of 0.1% BSA in assay buffer; CHO-K1 cell line expressing human B1 receptor; agonist Lys-(Des-Arg)-Bradykinin; read-out: hB1 free IC50
Description: The potency to inhibit the Bradykinin B1 receptor was determined for the compound examples of this invention in a cell-based fluorescent calcium-mobilisation assay. The assay measures the ability of compound examples to inhibit Bradykinin B1 receptor agonist-induced increase of intracellular free Ca^2+ in the cell line expressing Bradykinin B1 receptor. Specifically, calcium indicator-loaded cells are pre-incubated in the absence or presence of different concentrations of compound examples followed by the stimulation with a selective Bradykinin B1 receptor agonist peptide. The change of the intracellular Ca^2+ concentration is monitored with a fluorescent plate reader FLIPR^TETRA®
Calcium flux Assays (FLIPR) with cells expressing human Bradykinin B1 receptor (hB1) Calcium flux Assay (FLIPR) with recombinant cells for Bradykinin B1 receptor antagonist, either in the presence (hB1 IC50) or absence (hB1 free IC50) of 0.1% Bovine Serum Albumin (BSA) in assay buffer.
CHO—K1 cell line expressing human B1 receptor was purchased from Euroscreen (Gosselies, Belgium, with reference name hB1-D1). The cells were grown in Nutrient Mixture Ham's F12 (Sigma) containing 10% Foetal bovine serum (Sigma) and 400 μg/mL G418 (Sigma), 5 μg/mL puromycin (Sigma).
For the calcium flux assay, 80% confluent cells were detached from the culture vessels with Versene (Gibco), and seeded into 384-well plates (Cell binding Surface; Corning, N.Y.; #3683) at a density of 15,000 cells per well. Cells were seeded in a volume of 50 μL in medium without antibiotics and incubated overnight in a humidified atmosphere with 5% CO2 at 37° C. […] The calcium indicator loaded cells were incubated at 37° C. for 2 hrs. Extracellular dye was then removed and each well was filled with 45 μL of assay buffer. Cell plates were kept in dark until used. Example compounds were assayed at 8 concentrations in triplicate. Serial 10-fold dilutions in 100% DMSO were made at a 100-times higher concentration than the final concentration, and then diluted 1:10 in assay buffer. 5 μL of each diluted compound was added to the well of cell plates (yielding final concentration with 1% DMSO), and incubated for 30 min at 28° C. before the addition of B1 receptor agonist on the FLIPR instrument.
Agonist plates contained the agonist Lys-(Des-Arg)-Bradykinin (Bachem, Brackley) at 3.5×EC90 in assay buffer with 1% DMSO. The addition of agonist 20 μl per well to the assay plate was carried out on the FLIPR instrument while continuously monitoring Ca^2+-dependent fluorescence at 538 nm. A peptide antagonist Lys-(Des-Arg-Leu)-Bradykinin (Bachem, Brackley) at 20 μM was used to determine the full inhibition as control.
Peak fluorescence was used to determine the response to agonist obtained at each concentration of example compound by the following equation:
% Response=100*(RFU(example compound)−RFU(control))/(RFU(DMSO)−RFU(control)) • RFU means relative fluorescence units. • Control means full inhibition by the peptide antagonist Lys-(Des-Arg-Leu)-Bradykinin at 20
The response values were plotted against the logarithm of the example compound concentrations. The example compounds were tested in triplicates per plate and mean values were plotted in Excel XLfit to determine IC50 values, percentage of maximal inhibition and the Hill slopes.
IC50 values of example compounds in Calcium flux Assay (FLIPR) as shown in table 1 were determined according to the protocol described above in the absence of 0.1% BSA in assay buffer.

| IC50 | Structure (SMILES) |
| --- | --- |
| 133 nM | O=C(NC1CCOCC1)c1ccc(NC(=O)C2(c3ccc(C(F)(F)F)cc3F)CC2)cc1-c1nnn[nH]1 [Example 45, 4-[({1-[2-Fluoro-4-(trifluoromethyl)phenyl]cyclopropyl}carbonyl)amino]-N-(tetrahydro-2H-pyran-4-yl)-2-(1H-tetrazol-5-yl)benzamide] |
| 3300 nM | CN(C(=O)c1ccc(NC(=O)C2(c3cccc(Cl)c3)CC2)cc1-c1nnn[nH]1)C1CCOCC1 [Example 46, 4-({[1-(3-Chlorophenyl)cyclopropyl]carbonyl}amino)-N-methyl-N-(tetrahydro-2H-pyran-4-yl)-2-(1H-tetrazol-5-yl)benzamide] |
| 445 nM | CN(C(=O)c1ccc(NC(=O)C2(c3ccc(C(F)(F)F)cc3F)CC2)cc1-c1nnn[nH]1)C1CCOCC1 [Example 47, 4-[({1-[2-Fluoro-4-(trifluoromethyl)phenyl]cyclopropyl}carbonyl)amino]-N-methyl-N-(tetrahydro-2H-pyran-4-yl)-2-(1H-tetrazol-5-yl)benzamide] |
| 60 nM | O=C(NCC1CCOCC1)c1ccc(NC(=O)C2(c3ccc(C(F)(F)F)cc3F)CC2)cc1-c1nnn[nH]1 [Example 48, 4-[({1-[2-Fluoro-4-(trifluoromethyl)phenyl]cyclopropyl}carbonyl)amino]-N-(tetrahydro-2H-pyran-4-ylmethyl)-2-(1H-tetrazol-5-yl)benzamide] |
| 1800 nM | CN(CC1CCOCC1)C(=O)c1ccc(NC(=O)C2(c3ccc(C(F)(F)F)cc3F)CC2)cc1-c1nnn[nH]1 [Example 49, 4-[({1-[2-Fluoro-4-(trifluoromethyl)phenyl]cyclopropyl}carbonyl)amino]-N-methyl-N-(tetrahydro-2H-pyran-4-ylmethyl)-2-(1H-tetrazol-5-yl)benzamide] |
| 89 nM | COC[C@@H](C)NC(=O)c1ccc(NC(=O)C2(c3ccc(C(F)(F)F)cc3F)CC2)cc1-c1nnn[nH]1 [Example 50, 4-[({1-[2-Fluoro-4-(trifluoromethyl)phenyl]cyclopropyl}carbonyl)amino]-N-[(2R)-1-methoxypropan-2-yl]-2-(1H-tetrazol-5-yl)benzamide] |
| 409 nM | COC[C@H](C)NC(=O)c1ccc(NC(=O)C2(c3ccc(C(F)(F)F)cc3F)CC2)cc1-c1nnn[nH]1 [Example 51, 4-[({1-[2-Fluoro-4-(trifluoromethyl)phenyl]cyclopropyl}carbonyl)amino]-N-[(2S)-1-methoxypropan-2-yl]-2-(1H-tetrazol-5-yl)benzamide] |
| 143 nM | COC(C)(C)CNC(=O)c1ccc(NC(=O)C2(c3ccc(C(F)(F)F)cc3F)CC2)cc1-c1nnn[nH]1 [Example 52, 4-[({1-[2-Fluoro-4-(trifluoromethyl)phenyl]cyclopropyl}carbonyl)amino]-N-(2-methoxy-2-methylpropyl)-2-(1H-tetrazol-5-yl)benzamide] |
| 3610 nM | O=C(N[C@@H]1CCOC1)c1ccc(NC(=O)C2(c3ccc(C(F)(F)F)cc3F)CC2)cc1-c1nnn[nH]1 [Example 53, 4-[({1-[2-Fluoro-4-(trifluoromethyl)phenyl]cyclopropyl}carbonyl)amino]-N-[(3R)-tetrahydrofuran-3-yl]-2-(1H-tetrazol-5-yl)benzamide] |
| 1530 nM | O=C(N[C@H]1CCOC1)c1ccc(NC(=O)C2(c3ccc(C(F)(F)F)cc3F)CC2)cc1-c1nnn[nH]1 [Example 54, 4-[({1-[2-Fluoro-4-(trifluoromethyl)phenyl]cyclopropyl}carbonyl)amino]-N-[(3S)-tetrahydrofuran-3-yl]-2-(1H-tetrazol-5-yl)benzamide] |
| 1770 nM | CC(C)CN(C)C(=O)c1ccc(NC(=O)C2(c3ccc(C(F)(F)F)cc3F)CC2)cc1-c1nnn[nH]1 [Example 55, 4-[({1-[2-Fluoro-4-(trifluoromethyl)phenyl]cyclopropyl}carbonyl)amino]-N-isobutyl-N-methyl-2-(1H-tetrazol-5-yl)benzamide] |

The next lines start with the molecule.

| Structure (SMILES) | IC50 |
| --- | --- |
| Cc1ccc(NC(=O)c2ccc(NC(=O)C3(c4ccc(C(F)(F)F)cc4F)CC3)cc2-c2nnn[nH]2)nc1 [Example 56, 4-[({1-[2-Fluoro-4-(trifluoromethyl)phenyl]cyclopropyl}carbonyl)amino]-N-(5-methylpyridin-2-yl)-2-(1H-tetrazol-5-yl)benzamide] | 50 nM |
| Cc1ccc(NC(=O)c2ccc(NC(=O)C3(c4ccc(C(F)(F)F)cc4F)CC3)cc2-c2nnn[nH]2)cn1 [Example 57, 4-[({1-[2-Fluoro-4-(trifluoromethyl)phenyl]cyclopropyl}carbonyl)amino]-N-(6-methylpyridin-3-yl)-2-(1H-tetrazol-5-yl)benzamide] | 29 nM |
| CCOC(=O)c1c(F)cc(NC(=O)C2(c3ccc(C(F)(F)F)cc3F)CC2)cc1-c1nnn[nH]1 [Example 59, Ethyl 2-fluoro-4-[({1-[2-fluoro-4-(trifluoromethyl)phenyl]cyclopropyl}-carbonyl)amino]-6-(1H-tetrazol-5-yl)benzoate] | 5 nM |
| CCOC(=O)c1c(C)cc(NC(=O)C2(c3ccc(C(F)(F)F)cc3F)CC2)cc1-c1nnn[nH]1 [Example 60, Ethyl 4-[({1-[2-fluoro-4-(trifluoromethyl)phenyl]cyclopropyl}carbonyl)amino]-2-methyl-6-(1H-tetrazol-5-yl)benzoate] | 26 nM |
| O=C(OC1CCCC1)c1c(F)cc(NC(=O)C2(c3ccc(C(F)(F)F)cc3F)CC2)cc1-c1nnn[nH]1 [Example 61, Cyclopentyl 2-fluoro-4-[({1-[2-fluoro-4-(trifluoromethyl)phenyl]cyclopropyl}-carbonyl)amino]-6-(1H-tetrazol-5-yl)benzoate] | 2 nM |
| O=C(O[C@H]1CCOC1)c1c(F)cc(NC(=O)C2(c3ccc(C(F)(F)F)cc3F)CC2)cc1-c1nnn[nH]1 [Example 62, (3S)-tetrahydrofuran-3-yl 2-fluoro-4-[({1-[2-fluoro-4-(trifluoromethyl)phenyl]cyclopropyl}carbonyl)amino]-6-(1H-tetrazol-5-yl)benzoate] | 2 nM |
| Cc1ccc(NC(=O)c2c(F)cc(NC(=O)C3(c4ccc(C(F)(F)F)cc4F)CC3)cc2-c2nnn[nH]2)nc1 [Example 63, 2-Fluoro-4-[({1-[2-fluoro-4-(trifluoromethyl)phenyl]cyclopropyl}carbonyl)amino]-N-(5-methylpyridin-2-yl)-6-(1H-tetrazol-5-yl)benzamide] | 51 nM |
| Cc1cc(NC(=O)C2(c3ccc(C(F)(F)F)cc3F)CC2)cc(-c2nnn[nH]2)c1C(=O)OC1CCCC1 [Example 64, Cyclopentyl 4-[({1-[2-fluoro-4-(trifluoromethyl)phenyl]cyclopropyl}carbonyl)amino]-2-methyl-6-(1H-tetrazol-5-yl)benzoate] | 25 nM |
| Cc1cc(NC(=O)C2(c3ccc(C(F)(F)F)cc3F)CC2)cc(-c2nnn[nH]2)c1C(=O)O[C@H]1CCOC1 [Example 65, (3S)-tetrahydrofuran-3-yl 4-[({1-[2-fluoro-4-(trifluoromethyl)phenyl]cyclopropyl}carbonyl)amino]-2-methyl-6-(1H-tetrazol-5-yl)benzoate] | 62 nM |
| Cc1ccc(NC(=O)c2c(C)cc(NC(=O)C3(c4ccc(C(F)(F)F)cc4F)CC3)cc2-c2nnn[nH]2)nc1 [Example 66, 4-[({1-[2-fluroo-4-(trifluoromethyl)phenyl]cyclopropyl}carbonyl)amino]-2-methyl-N-(5-methylpyridin-2-yl)-6-(1H-tetrazol-5-yl)benzamide] | 1450 nM |

From patent US20190177284A1, “TETRAZOLYL-CONTAINING CYCLOPROPANECARBOXAMIDES” (Bayer Pharma Aktiengesellschaft, priority 2017, published 2019)
